# Test results from article PMC10706121, “Bioactive Polyketides from the Natural Complex of the Sea Urchin-Associated Fungi Penicillium sajarovii KMM 4718 and Aspergillus protuberus KMM 4747” (International Journal of Molecular Sciences, 2023).
# “Also recorded” adds a separate entry of the source.
# Molecular target: T1, urease from Canavalia ensiformis (Canavalia ensiformis, UniProt P07374)
# T1 construct: purchased Sigma
# Test: Urease inhibition assay (indophenol method, cell-free)
# Assay type: biochemical
# Details: not given
# Description: A reaction mixture consisting of 25 µL of enzyme solution (urease from Canavalia ensiformis, Sigma, 1U final concentration) and 5 µL of test compounds dissolved in water (10–300.0 µM final concentration) was preincubated at 37 °C for 60 min in 96-well plates. Then, 55 µL of phosphate-buffered solution with […] of urea was added to each well and incubated at 37 °C for 10 min. The urease inhibitory activity was estimated by determining ammonia production using the indophenol method. Briefly, 45 µL of phenol reagent (1% w/v phenol and 0.005% w/v sodium nitroprusside) and 70 µL of alkali reagent (0.5% w/v NaOH and 0.1% active chloride NaClO) were added to each well. The absorbance was measured after 50 min at 630 nm using a MultiskanFS microplate reader (Thermo Scientific Inc., Beverly, MA, USA). All reactions were performed in triplicate in a final volume of 200 µL. The pH was maintained at 7.3–7.5 in all assays. DMSO 5% was used as a positive control.
# T1 sequence (P07374 whole entry, looked up): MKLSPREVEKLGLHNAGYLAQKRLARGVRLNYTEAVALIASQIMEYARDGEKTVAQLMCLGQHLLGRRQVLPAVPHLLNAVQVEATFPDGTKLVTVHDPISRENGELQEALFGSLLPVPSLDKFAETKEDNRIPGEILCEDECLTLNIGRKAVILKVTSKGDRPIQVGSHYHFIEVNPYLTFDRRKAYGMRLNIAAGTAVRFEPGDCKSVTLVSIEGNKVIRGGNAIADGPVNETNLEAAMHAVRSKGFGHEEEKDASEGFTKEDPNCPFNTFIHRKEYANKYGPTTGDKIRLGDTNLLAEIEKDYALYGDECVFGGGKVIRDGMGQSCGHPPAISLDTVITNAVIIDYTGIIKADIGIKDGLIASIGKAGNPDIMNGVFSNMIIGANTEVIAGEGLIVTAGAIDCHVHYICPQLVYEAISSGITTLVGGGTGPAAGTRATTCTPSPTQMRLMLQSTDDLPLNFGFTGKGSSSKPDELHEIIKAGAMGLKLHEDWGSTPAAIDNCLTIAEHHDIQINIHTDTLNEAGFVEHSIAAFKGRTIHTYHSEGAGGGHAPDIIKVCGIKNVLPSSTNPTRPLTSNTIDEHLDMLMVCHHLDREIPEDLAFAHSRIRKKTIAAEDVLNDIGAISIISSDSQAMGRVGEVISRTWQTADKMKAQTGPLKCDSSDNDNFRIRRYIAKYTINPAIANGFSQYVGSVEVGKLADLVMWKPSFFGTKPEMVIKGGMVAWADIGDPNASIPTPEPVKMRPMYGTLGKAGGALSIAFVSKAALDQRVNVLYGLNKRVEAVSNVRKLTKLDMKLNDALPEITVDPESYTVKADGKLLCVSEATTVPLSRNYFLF
row,SMILES,IC50 [µM]
1,"COC1=CC(=O)C[C@@H](C)[C@]12Oc1c(Cl)c(OC)cc(OC)c1C2=O [Compound 8, griseofulvin, reference compound]",10.1 ± 0.6
2,"Cc1cc(O)cc2oc(C[C@H](C)O)cc(=O)c12 [Compound 3, (2′S)-7-hydroxy-2-(2′-hydroxypropyl)-5-methylchromone]",> 100
3,"COc1cc(O)c2c(=O)c3c(C)cc(O)cc3oc2c1 [Compound 6, griseoxanthone C]",97.3 ± 1.6

# Same assay, conditions: at concentrations of up to 100 µM
row,SMILES,effect on urease activity
1,"Cc1cc(O)cc2oc(C[C@H](C)O)cc(=O)c12 [Compound 3, (2′S)-7-hydroxy-2-(2′-hydroxypropyl)-5-methylchromone]",no effect; also recorded: did not show any effect

# Tested on: S. aureus-infected H9c2 cardiomyocytes
# Test: Staphylococcus aureus-induced infection of H9c2 cardiomyocytes (in vitro model of infectious myocarditis, MTT)
# Assay type: cell-based, rat
# Details: 1 and 10 µM
# Description: The H9c2 cells were seeded at concentrations of 3 × 10^3 cell/well. After 24 h, the cell culture media was changed with an S. aureus bacterial suspension (10^2 CFU/mL) prepared in full DMEM culture media. The investigated compounds at concentrations of 1 and 10 µM were added after 1 h and the cells were incubated for 48 h. The S. aureus suspension with compounds at the same concentrations was used as a control. MTT reagent was added to all wells and formazan production was detected with the microplate reader MultiscanFC (ThermoLabsystems Inc., Beverly, MA, USA). The viability of S. aureus-infected cells was calculated as:Viability, relative units = (OD cells+Sa +comp − OD Sa+comp)/(OD cells+Sa − OD Sa)
row,SMILES,effect on the viability of S. aureus-infected H9c2 cardiomyocytes
1,"COc1cc(O)c2c(=O)c3c(C)cc(O)cc3oc2c1 [Compound 6, griseoxanthone C]",did not show any statistical effect

# Tested on: Candida albicans KMM 455
# Test: Antimicrobial activity, inhibition of microbial growth (OD620)
# Assay type: cell-based
# Details: Candida albicans, KMM455, read-out: Inhibition of Microbial Growth, C. albicans
# Description: (§1) The yeast-like fungi of Candida albicans KMM 455 and bacterial strains Staphylococcus aureus ATCC 21027 and Escherichia coli VKPM (B-7935) (Collection of Marine Microorganisms PIBOC FEB RAS) were cultured on solid-medium Mueller Hinton broth with agar (16.0 g/L) in a Petri dish at 37 °C for 24 h.
# (§2) The assays were performed in 96-well microplates in appropriate Mueller Hinton broth. Each well contained 90 µL of bacterial or of a yeast-like fungi suspension (10^9 CFU/mL). Then, 10 µL of a compound diluted at concentrations ranging from 1.5 to 100.0 µM using a 2-fold dilution was added (DMSO concentration < 1%). Culture plates were incubated overnight at 37 °C, and the OD620 was measured using a Multiskan FS spectrophotometer (Thermo Scientific Inc., Beverly, MA, USA). The antibiotic gentamicin and antifungal agent nitrofungin were used as positive controls at 1 mg/mL; 1% DMSO in PBS served as a negative control.
row,SMILES,inhibition at 100 µM [%]
1,"COc1cc(O)c2c(=O)c3c(C)cc(O)cc3oc2c1 [Compound 6, griseoxanthone C]",< 10

# Same assay, conditions: Candida albicans, KMM455; compounds tested at 100 µM; read-out: Inhibition of Microbial Growth, C. albicans
row,SMILES,inhibition at 100 µM [%]
1,"COC1=CC(=O)C[C@@H](C)[C@]12Oc1c(Cl)c(OC)cc(OC)c1C2=O [Compound 8, griseofulvin, reference compound]",< 10
2,"Cc1cc(O)cc2oc(C[C@H](C)O)cc(=O)c12 [Compound 3, (2′S)-7-hydroxy-2-(2′-hydroxypropyl)-5-methylchromone]",< 10

# Same assay, conditions: compounds tested at 100 µM
row,SMILES,"Inhibition of Microbial Growth, C. albicans"
1,"COc1cc(O)c2c(=O)c3c(C)cc(O)cc3oc2c1 [Compound 6, griseoxanthone C]",did not affect

# Tested on: Escherichia coli VKPM (B-7935)
# Test: as above
# Assay type: cell-based
# Details: Escherichia coli, compounds tested at 100 µM; read-out: Inhibition of Microbial Growth, E. coli
# Description: as §1, §2
row,SMILES,inhibition at 100 µM [%]
1,"COC1=CC(=O)C[C@@H](C)[C@]12Oc1c(Cl)c(OC)cc(OC)c1C2=O [Compound 8, griseofulvin, reference compound]",16.8 ± 4.5
2,"Cc1cc(O)cc2oc(C[C@H](C)O)cc(=O)c12 [Compound 3, (2′S)-7-hydroxy-2-(2′-hydroxypropyl)-5-methylchromone]",< 10

# Same assay, conditions: Escherichia coli, read-out: Inhibition of Microbial Growth, E. coli
row,SMILES,inhibition at 100 µM [%]
1,"COc1cc(O)c2c(=O)c3c(C)cc(O)cc3oc2c1 [Compound 6, griseoxanthone C]",< 10

# Tested on: Staphylococcus aureus ATCC 21027
# Test: as above
# Assay type: cell-based
# Details: Staphylococcus aureus, ATCC21027, compounds tested at 100 µM; read-out: Inhibition of Microbial Growth, S. aureus
# Description: as §1, §2
row,SMILES,inhibition at 100 µM [%]
1,"COC1=CC(=O)C[C@@H](C)[C@]12Oc1c(Cl)c(OC)cc(OC)c1C2=O [Compound 8, griseofulvin, reference compound]",11.5 ± 4.3
2,"Cc1cc(O)cc2oc(C[C@H](C)O)cc(=O)c12 [Compound 3, (2′S)-7-hydroxy-2-(2′-hydroxypropyl)-5-methylchromone]",17.7 ± 0.3

# Same assay, conditions: Staphylococcus aureus, ATCC21027, read-out: Inhibition of Microbial Growth, S. aureus
row,SMILES,inhibition at 100 µM [%]
1,"COc1cc(O)c2c(=O)c3c(C)cc(O)cc3oc2c1 [Compound 6, griseoxanthone C]",< 10

# Tested on: human hepatocarcinoma HepG2 cells
# Test: Cell viability assay (MTT), cytotoxic activity
# Assay type: cell-based
# Details: 100 µM
# Description: (§3) The HepG2 and H9c2 cells were cultured in DMEM medium (Biolot, St. Petersburg, Russia) containing 10% fetal bovine serum (Biolot, St. Petersburg, Russia) and 1% penicillin/streptomycin (Biolot, St. Petersburg, Russia) at 37 °C in a humidified atmosphere with 5% (v/v) CO2.
# (§4) The HepG2 and H9c2 cells were seeded at concentrations of 5× 10^3 and 3×10^3 cell/well, respectively, and the experiments were started after 24 h. The compounds at concentrations up to 100 µM were added into the wells for 24 h, and the viability of the cells was measured by an MTT (3-(4,5-dimethylthiazol-2-yl)-2,5-diphenyltetrazolium bromide) assay, which was performed according to the manufacturer’s instructions (Sigma-Aldrich, Munich, Germany). All compounds were dissolved with DMSO so that the final concentration of DMSO in the cell culture was not more than 1%. Moreover, DMSO was used as a control. The absorbance of the resulting solution was measured at 570 nm with a microplate reader MultiscanFC (ThermoLabsystems Inc., Beverly, MA, USA). The results are presented as a percent of the control data and calculated IC50.
row,SMILES,decrease of HepG2 cell viability [%]
1,"COC1=CC(=O)C[C@@H](C)[C@]12Oc1c(Cl)c(OC)cc(OC)c1C2=O [Compound 8, griseofulvin, reference compound]",60.1
2,"COc1cc(O)c2c(=O)c3c(C)cc(O)cc3oc2c1 [Compound 6, griseoxanthone C]",72.9

# Tested on: normal rat cardiomyocyte H9c2 cells
# Test: Cell viability assay (MTT), cytotoxic activity
# Assay type: cell-based
# Details: 100 µM
# Description: as §3, §4
row,SMILES,decrease of H9c2 cell viability [%]
1,"COC1=CC(=O)C[C@@H](C)[C@]12Oc1c(Cl)c(OC)cc(OC)c1C2=O [Compound 8, griseofulvin, reference compound]",28.4
2,"Cc1cc(O)cc2oc(C[C@H](C)O)cc(=O)c12 [Compound 3, (2′S)-7-hydroxy-2-(2′-hydroxypropyl)-5-methylchromone]",25.7
3,"COc1cc(O)c2c(=O)c3c(C)cc(O)cc3oc2c1 [Compound 6, griseoxanthone C]",36.7

# Tested on: not listed separately
# Test: Cell viability assay (MTT), cytotoxic activity
# Assay type: cell-based, human
# Details: human, HepG2 cells (human hepatocarcinoma), 24 h, MTT; read-out: HepG2 IC50 (cytotoxic effect)
# Description: as §3, §4
row,SMILES,IC50 at 24 h [µM]
1,"COC1=CC(=O)C[C@@H](C)[C@]12Oc1c(Cl)c(OC)cc(OC)c1C2=O [Compound 8, griseofulvin, reference compound]",77.8 ± 1.3
2,"Cc1cc(O)cc2oc(C[C@H](C)O)cc(=O)c12 [Compound 3, (2′S)-7-hydroxy-2-(2′-hydroxypropyl)-5-methylchromone]",> 100

# Same assay, conditions: human, HepG2 hepatocarcinoma cells; 10 µM, 24 h, MTT, percent of control
row,SMILES,"viability at 24 h, 10 µM [%]"
1,"COC1=CC(=O)C[C@@H](C)[C@]12Oc1c(Cl)c(OC)cc(OC)c1C2=O [Compound 8, griseofulvin, reference compound]",81 ± 2.1
2,"Cc1cc(O)cc2oc(C[C@H](C)O)cc(=O)c12 [Compound 3, (2′S)-7-hydroxy-2-(2′-hydroxypropyl)-5-methylchromone]",91.7 ± 1.5

# Same assay, conditions: human, HepG2 hepatocarcinoma cells; 100 µM, 24 h, MTT, percent of control
row,SMILES,"viability at 24 h, 100 µM [%]"
1,"COC1=CC(=O)C[C@@H](C)[C@]12Oc1c(Cl)c(OC)cc(OC)c1C2=O [Compound 8, griseofulvin, reference compound]",39.9 ± 0.7
2,"Cc1cc(O)cc2oc(C[C@H](C)O)cc(=O)c12 [Compound 3, (2′S)-7-hydroxy-2-(2′-hydroxypropyl)-5-methylchromone]",101 ± 3.9

# Same assay, conditions: human; 10 µM, 24 h, MTT, percent of control; read-out: HepG2 Cell Viability
row,SMILES,"viability at 24 h, 10 µM [%]"
1,"COc1cc(O)c2c(=O)c3c(C)cc(O)cc3oc2c1 [Compound 6, griseoxanthone C]",85.7 ± 5.7

# Same assay, conditions: human; 100 µM, 24 h, MTT, percent of control; read-out: HepG2 Cell Viability
row,SMILES,"viability at 24 h, 100 µM [%]"
1,"COc1cc(O)c2c(=O)c3c(C)cc(O)cc3oc2c1 [Compound 6, griseoxanthone C]",27.1 ± 2.4

# Same assay, conditions: human; 24 h, MTT; read-out: HepG2 IC50 (cytotoxic effect)
row,SMILES,IC50 at 24 h [µM]
1,"COc1cc(O)c2c(=O)c3c(C)cc(O)cc3oc2c1 [Compound 6, griseoxanthone C]",64.7 ± 0.8

# Same assay, conditions: rat, H9c2 cardiomyocyte cells; 10 µM, 24 h, MTT, percent of control
row,SMILES,"viability at 24 h, 10 µM [%]"
1,"COC1=CC(=O)C[C@@H](C)[C@]12Oc1c(Cl)c(OC)cc(OC)c1C2=O [Compound 8, griseofulvin, reference compound]",89.8 ± 2.7
2,"Cc1cc(O)cc2oc(C[C@H](C)O)cc(=O)c12 [Compound 3, (2′S)-7-hydroxy-2-(2′-hydroxypropyl)-5-methylchromone]",96.4 ± 2.1

# Same assay, conditions: rat, H9c2 cardiomyocyte cells; 100 µM, 24 h, MTT, percent of control
row,SMILES,"viability at 24 h, 100 µM [%]"
1,"COC1=CC(=O)C[C@@H](C)[C@]12Oc1c(Cl)c(OC)cc(OC)c1C2=O [Compound 8, griseofulvin, reference compound]",71.6 ± 3.7
2,"Cc1cc(O)cc2oc(C[C@H](C)O)cc(=O)c12 [Compound 3, (2′S)-7-hydroxy-2-(2′-hydroxypropyl)-5-methylchromone]",74.3 ± 3.2

# Same assay, conditions: rat, H9c2 cells (normal rat cardiomyocytes), 24 h, MTT; read-out: H9c2 IC50 (cytotoxic effect)
row,SMILES,IC50 at 24 h [µM]
1,"COC1=CC(=O)C[C@@H](C)[C@]12Oc1c(Cl)c(OC)cc(OC)c1C2=O [Compound 8, griseofulvin, reference compound]",> 100
2,"Cc1cc(O)cc2oc(C[C@H](C)O)cc(=O)c12 [Compound 3, (2′S)-7-hydroxy-2-(2′-hydroxypropyl)-5-methylchromone]",> 100

# Same assay, conditions: rat; 10 µM, 24 h, MTT, percent of control; read-out: H9c2 Cell Viability
row,SMILES,"viability at 24 h, 10 µM [%]"
1,"COc1cc(O)c2c(=O)c3c(C)cc(O)cc3oc2c1 [Compound 6, griseoxanthone C]",86 ± 4.8

# Same assay, conditions: rat; 100 µM, 24 h, MTT, percent of control; read-out: H9c2 Cell Viability
row,SMILES,"viability at 24 h, 100 µM [%]"
1,"COc1cc(O)c2c(=O)c3c(C)cc(O)cc3oc2c1 [Compound 6, griseoxanthone C]",63.3 ± 1.4

# Same assay, conditions: rat; 24 h, MTT; read-out: H9c2 IC50 (cytotoxic effect)
row,SMILES,IC50 at 24 h [µM]
1,"COc1cc(O)c2c(=O)c3c(C)cc(O)cc3oc2c1 [Compound 6, griseoxanthone C]",> 100
